Assay results reported in publication PMC3872530 (Molecular microbiology, 2013).

Tests used:
Test in all cases: whole-cell EPR of [2Fe-2S] cluster
Type in all cases: cell-based
PaSoxR = PaSoxR (Pseudomonas aeruginosa, UniProt Q51506); details: oxidant, 40 min, E. coli XA90, EPR at 15 K
EcSoxR = molecular target: T1, EcSoxR (Escherichia coli, UniProt P0ACS2); details: oxidant, 40 min, E. coli XA90, EPR at 15 K
T1 sequence (P0ACS2 1-154): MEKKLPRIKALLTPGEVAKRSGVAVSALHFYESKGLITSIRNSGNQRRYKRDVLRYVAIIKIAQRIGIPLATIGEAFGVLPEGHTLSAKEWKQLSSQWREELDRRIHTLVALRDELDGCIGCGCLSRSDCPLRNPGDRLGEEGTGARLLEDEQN

ScSoxR = molecular target: T2, ScSoxR (Streptomyces coelicolor, UniProt Q9S255); details: oxidant; 50 uM, 40 min, E. coli XA90, EPR at 15 K
T2 sequence (Q9S255 1-175): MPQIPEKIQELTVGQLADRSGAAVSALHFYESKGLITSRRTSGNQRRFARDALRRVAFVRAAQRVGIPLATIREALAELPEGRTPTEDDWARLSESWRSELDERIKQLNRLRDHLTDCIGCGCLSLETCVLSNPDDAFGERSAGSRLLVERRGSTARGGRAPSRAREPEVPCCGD

Sequence of PaSoxR (Q51506 whole entry): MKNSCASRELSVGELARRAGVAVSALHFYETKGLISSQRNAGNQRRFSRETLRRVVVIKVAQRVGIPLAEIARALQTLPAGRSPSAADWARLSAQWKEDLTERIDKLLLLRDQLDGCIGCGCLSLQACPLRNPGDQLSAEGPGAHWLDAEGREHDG

Row | Structure (SMILES) | whole-cell EPR of [2Fe-2S] cluster (PaSoxR; 100 uM, partial effect) | whole-cell EPR of [2Fe-2S] cluster (EcSoxR; 100 uM) | whole-cell EPR of [2Fe-2S] cluster (PaSoxR; 50 uM) | whole-cell EPR of [2Fe-2S] cluster (ScSoxR) | whole-cell EPR of [2Fe-2S] cluster (EcSoxR; 50 uM)
1 | C[n+]1ccc(-c2cc[n+](C)cc2)cc1 [PQ, paraquat] | PQ was partially effective in oxidizing the [2Fe-2S] cluster | The spectra disappeared upon treatment with PQ and PMS |  |  | 
2 | C[n+]1c2ccccc2nc2ccccc21 [PMS, phenazine methosulfate] |  |  | PMS always silenced the spectral peaks | The cluster was oxidized to its EPR-silent state when the cells were treated with PMS | The spectra disappeared upon treatment with PQ and PMS
